From ChEMBL document CHEMBL4376896, “Synthesis of Novel Potent Archazolids: Pharmacology of an Emerging Class of Anticancer Drugs” (J Med Chem, 2020)
In brackets after ≈: the same amount, converted by molar mass. Activity calls are given as the source filed them. No cut-off for these calls is given here.

Columns and labels:
Cytochrome P450 3A4 [1] = biological target: T1, Cytochrome P450 3A4 (Homo sapiens, UniProt P08684); experiment: Inhibition of recombinant human CYP3A4 at 1 uM; type: ADME; conditions: recombinant enzyme
[2] = Half life in Sprague-Dawley rat liver microsomes at 1 uM; type: ADME, Microsome
Cytochrome P450 2B6 = Cytochrome P450 2B6 (Homo sapiens, UniProt P20813); experiment: Inhibition of recombinant human CYP2B6 at 100 nM; type: ADME; conditions: recombinant enzyme, 0.1 µM
Cytochrome P450 1A2 = Cytochrome P450 1A2 (Homo sapiens, UniProt P05177); experiment: Inhibition of recombinant human CYP1A2 at 100 nM; type: ADME; conditions: recombinant enzyme, 0.1 µM
cells = conditions: Homo sapiens, 1321-N1, 72 h
Description: Growth inhibition of human 1321N1 cells incubated for 72 hrs by MTT assay

P2X purinoceptor 3 = biological target: T2, P2X purinoceptor 3 (Homo sapiens, UniProt P56373); experiment: Inhibition of human P2X3 assessed as reduction in agonist-induced intracellular Ca2+ concentration pre-incubated for 30 mins before agonist addition by calcium 5 dye based fluorescence assay; type: cell-based
T2 sequence (P56373 whole entry): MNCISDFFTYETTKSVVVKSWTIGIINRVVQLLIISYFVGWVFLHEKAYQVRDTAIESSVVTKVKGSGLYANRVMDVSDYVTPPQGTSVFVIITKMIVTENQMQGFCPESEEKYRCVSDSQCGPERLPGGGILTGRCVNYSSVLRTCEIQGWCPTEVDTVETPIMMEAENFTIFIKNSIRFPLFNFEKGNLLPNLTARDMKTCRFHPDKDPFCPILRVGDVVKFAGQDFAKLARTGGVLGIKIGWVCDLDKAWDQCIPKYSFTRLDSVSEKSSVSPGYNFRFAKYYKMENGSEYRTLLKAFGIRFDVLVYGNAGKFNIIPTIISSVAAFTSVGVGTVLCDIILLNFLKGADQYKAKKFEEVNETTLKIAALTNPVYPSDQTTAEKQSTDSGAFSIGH

[3] = biological target: Chymotrypsin (Homo sapiens) (UniProt Q99895+P17538+P40313+Q6GPI1); experiment: Inhibition of chymotrypsin (unknown origin) assessed as reduction in pNA release using chromogenic Suc-Ala-Ala-Pro-Phe-pNA substrate measured over 12.5 mins by spectrophotometry; type: protein assay
Cytochrome P450 2C19 [4] = biological target: T3, Cytochrome P450 2C19 (Homo sapiens, UniProt P33261); experiment: Inhibition of recombinant human CYP2C19 at 1 uM; type: ADME; conditions: recombinant enzyme
[5] = Intrinsic clearance in human liver microsomes at 1 uM; type: ADME, Microsome; conditions: read-out: CLH
[6] = Permeability in human Caco2 cells at 10 uM; type: ADME, cell-based; conditions: caco-2, 10 µM
[7] = Intrinsic clearance in CD1 mouse liver microsomes at 1 uM; type: ADME, Microsome; conditions: read-out: CLH
[8] = biological target: Cathepsin B (Homo sapiens) (UniProt P07858); experiment: Inhibition of cathepsin B (unknown origin) assessed as reduction in pNA release using chromogenic Z-Arg-Arg-pNA substrate measured over 1 hr by spectrophotometry
Adenosine receptor A3 = biological target: T4, Adenosine receptor A3 (Homo sapiens, UniProt P0DMS8); experiment: Displacement of [3H]PSB-11 from human A3 adenosine receptor expressed in CHO cell membranes incubated for 60 mins by liquid scintillation counting method
T4 sequence (P0DMS8 whole entry): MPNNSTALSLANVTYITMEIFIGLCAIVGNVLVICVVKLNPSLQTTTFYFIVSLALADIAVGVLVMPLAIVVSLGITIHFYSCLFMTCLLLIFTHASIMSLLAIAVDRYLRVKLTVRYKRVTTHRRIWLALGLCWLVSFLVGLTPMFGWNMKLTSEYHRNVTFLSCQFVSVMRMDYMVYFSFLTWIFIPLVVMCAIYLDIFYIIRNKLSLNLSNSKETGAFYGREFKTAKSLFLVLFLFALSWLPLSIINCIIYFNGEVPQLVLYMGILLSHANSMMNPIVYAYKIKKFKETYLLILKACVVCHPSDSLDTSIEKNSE

[9] = biological target: Procathepsin L (Homo sapiens) (UniProt P07711); experiment: Inhibition of cathepsin L (unknown origin) assessed as reduction in pNA release using chromogenic Z-Phe-Arg-pNA substrate measured over 1 hr by spectrophotometry
[10] = Half life in CD1 mouse liver microsomes at 1 uM; type: ADME, Microsome
Cytochrome P450 2C19 [11] = biological target: T3, Cytochrome P450 2C19; experiment: Inhibition of recombinant human CYP2C19 at 100 nM; type: ADME; conditions: recombinant enzyme, 0.1 µM
Neutrophil elastase = biological target: T5, Neutrophil elastase (Homo sapiens, UniProt P08246); experiment: Inhibition of human leukocyte elastase assessed as reduction in pNA release using chromogenic MeO-Suc-Ala-Ala-Pro-Val-pNA substrate measured over 10 mins by spectrophotometry; conditions: read-out: IC50
T5 sequence (P08246 whole entry): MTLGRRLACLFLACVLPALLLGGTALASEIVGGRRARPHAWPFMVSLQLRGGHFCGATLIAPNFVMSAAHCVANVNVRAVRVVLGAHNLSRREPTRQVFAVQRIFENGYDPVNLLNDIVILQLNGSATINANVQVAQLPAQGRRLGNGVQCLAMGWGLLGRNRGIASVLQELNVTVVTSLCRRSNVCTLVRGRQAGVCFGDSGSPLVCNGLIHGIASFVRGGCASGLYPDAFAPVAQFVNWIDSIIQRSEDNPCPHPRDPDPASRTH

Cytochrome P450 2C9 [12] = biological target: T6, Cytochrome P450 2C9 (Homo sapiens, UniProt P11712); experiment: Inhibition of recombinant human CYP2C9 at 1 uM; type: ADME; conditions: recombinant enzyme
[13] = Stability in human liver microsomes assessed as drug degradation at 1 uM measured within 15 mins; type: ADME, Microsome; conditions: read-out: Drug degradation
[14] = Stability in Sprague-Dawley rat liver microsomes assessed as drug degradation at 1 uM measured within 15 mins; type: ADME, Microsome; conditions: read-out: Drug degradation
[15] = Kinetic aqueous solubility of the compound; type: physicochemical; conditions: buffer; read-out: Kinetic_solubility
[16] = Stability in CD1 mouse liver microsomes assessed as drug degradation at 1 uM measured within 15 mins; type: ADME, Microsome; conditions: read-out: Drug degradation
Trypsin (Homo sapiens) = Trypsin (Homo sapiens) (UniProt P07477+P07478+P35030); experiment: Inhibition of trypsin (unknown origin) assessed as reduction in pNA release using chromogenic Suc-Ala-Ala-Pro-Arg-pNA substrate measured over 10 mins by spectrophotometry; type: protein assay
[17] = Intrinsic clearance in Sprague-Dawley rat liver microsomes at 1 uM; type: ADME, Microsome; conditions: read-out: CLH
Cytochrome P450 3A4 [18] = biological target: T1, Cytochrome P450 3A4; experiment: Inhibition of recombinant human CYP3A4 at 100 nM; type: ADME; conditions: recombinant enzyme, 0.1 µM
Cytochrome P450 2D6 = Cytochrome P450 2D6 (Homo sapiens, UniProt P10635); experiment: Inhibition of recombinant human CYP2D6 at 100 nM; type: ADME; conditions: recombinant enzyme, 0.1 µM
Cytochrome P450 2C9 [19] = biological target: T6, Cytochrome P450 2C9; experiment: Inhibition of recombinant human CYP2C9 at 100 nM; type: ADME; conditions: recombinant enzyme, 0.1 µM
[20] = biological target: P2X purinoceptor 3 (Homo sapiens) (UniProt P56373); experiment: Inhibition of human P2X3 expressed in human 1321N1 cell membranes assessed as reduction in ATP-induced inhibition of [35S]ATPgammaS binding at 1 pm to 10 mM
[21] = Half life in human liver microsomes at 1 uM; type: ADME, Microsome

T6 sequence (P11712 whole entry): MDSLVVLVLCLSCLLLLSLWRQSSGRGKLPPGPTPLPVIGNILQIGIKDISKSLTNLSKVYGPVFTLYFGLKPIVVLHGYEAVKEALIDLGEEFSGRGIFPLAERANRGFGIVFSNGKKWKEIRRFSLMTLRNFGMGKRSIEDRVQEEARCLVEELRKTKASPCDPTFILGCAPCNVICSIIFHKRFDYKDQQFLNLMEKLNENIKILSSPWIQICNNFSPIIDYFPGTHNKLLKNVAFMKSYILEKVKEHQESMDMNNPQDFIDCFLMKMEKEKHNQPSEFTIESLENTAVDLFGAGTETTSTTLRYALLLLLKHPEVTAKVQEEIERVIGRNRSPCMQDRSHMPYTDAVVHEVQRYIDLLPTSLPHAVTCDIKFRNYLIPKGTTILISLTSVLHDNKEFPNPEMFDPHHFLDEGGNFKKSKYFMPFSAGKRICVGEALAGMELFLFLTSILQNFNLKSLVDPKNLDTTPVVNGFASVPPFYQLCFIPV
T1 sequence (P08684 whole entry): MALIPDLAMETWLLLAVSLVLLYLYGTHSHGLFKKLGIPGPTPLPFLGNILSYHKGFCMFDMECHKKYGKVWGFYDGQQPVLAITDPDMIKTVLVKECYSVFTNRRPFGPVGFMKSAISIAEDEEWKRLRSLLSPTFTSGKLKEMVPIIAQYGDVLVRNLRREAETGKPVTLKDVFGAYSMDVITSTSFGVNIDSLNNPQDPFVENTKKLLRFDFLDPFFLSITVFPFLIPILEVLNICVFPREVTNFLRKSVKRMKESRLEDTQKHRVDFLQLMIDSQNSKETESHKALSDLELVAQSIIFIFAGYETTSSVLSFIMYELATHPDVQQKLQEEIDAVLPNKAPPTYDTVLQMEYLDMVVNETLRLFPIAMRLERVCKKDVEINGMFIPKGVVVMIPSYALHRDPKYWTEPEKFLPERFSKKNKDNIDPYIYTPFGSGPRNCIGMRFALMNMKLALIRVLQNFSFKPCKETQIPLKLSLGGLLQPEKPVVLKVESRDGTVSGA
T3 sequence (P33261 whole entry): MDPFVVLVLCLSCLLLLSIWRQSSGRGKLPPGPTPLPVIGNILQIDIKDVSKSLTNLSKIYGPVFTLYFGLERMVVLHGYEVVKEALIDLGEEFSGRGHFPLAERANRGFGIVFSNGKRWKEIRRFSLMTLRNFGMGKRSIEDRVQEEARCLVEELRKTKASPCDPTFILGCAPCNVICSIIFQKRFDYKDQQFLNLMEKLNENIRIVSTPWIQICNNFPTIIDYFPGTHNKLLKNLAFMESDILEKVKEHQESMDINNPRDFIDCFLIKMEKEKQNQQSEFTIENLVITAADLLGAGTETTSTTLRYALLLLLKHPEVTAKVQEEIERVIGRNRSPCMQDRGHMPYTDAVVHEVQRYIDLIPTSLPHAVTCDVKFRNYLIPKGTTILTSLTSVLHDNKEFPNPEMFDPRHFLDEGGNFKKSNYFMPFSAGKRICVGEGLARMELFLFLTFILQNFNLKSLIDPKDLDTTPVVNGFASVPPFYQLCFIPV
Cytochrome P450 2B6, sequence (P20813 whole entry): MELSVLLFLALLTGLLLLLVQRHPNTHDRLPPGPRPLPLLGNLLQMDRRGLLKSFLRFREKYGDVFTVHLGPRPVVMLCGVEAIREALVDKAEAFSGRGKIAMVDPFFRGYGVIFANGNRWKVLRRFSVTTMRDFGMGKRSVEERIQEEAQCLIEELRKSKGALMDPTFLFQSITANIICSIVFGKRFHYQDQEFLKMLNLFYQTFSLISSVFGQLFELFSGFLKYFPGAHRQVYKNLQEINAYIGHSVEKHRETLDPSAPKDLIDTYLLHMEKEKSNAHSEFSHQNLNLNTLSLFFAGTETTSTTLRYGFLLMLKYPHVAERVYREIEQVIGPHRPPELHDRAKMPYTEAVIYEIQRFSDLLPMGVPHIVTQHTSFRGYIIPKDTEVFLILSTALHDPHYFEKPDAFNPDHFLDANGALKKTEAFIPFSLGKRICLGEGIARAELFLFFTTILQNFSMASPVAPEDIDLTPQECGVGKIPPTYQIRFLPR
Cytochrome P450 1A2, sequence (P05177 whole entry): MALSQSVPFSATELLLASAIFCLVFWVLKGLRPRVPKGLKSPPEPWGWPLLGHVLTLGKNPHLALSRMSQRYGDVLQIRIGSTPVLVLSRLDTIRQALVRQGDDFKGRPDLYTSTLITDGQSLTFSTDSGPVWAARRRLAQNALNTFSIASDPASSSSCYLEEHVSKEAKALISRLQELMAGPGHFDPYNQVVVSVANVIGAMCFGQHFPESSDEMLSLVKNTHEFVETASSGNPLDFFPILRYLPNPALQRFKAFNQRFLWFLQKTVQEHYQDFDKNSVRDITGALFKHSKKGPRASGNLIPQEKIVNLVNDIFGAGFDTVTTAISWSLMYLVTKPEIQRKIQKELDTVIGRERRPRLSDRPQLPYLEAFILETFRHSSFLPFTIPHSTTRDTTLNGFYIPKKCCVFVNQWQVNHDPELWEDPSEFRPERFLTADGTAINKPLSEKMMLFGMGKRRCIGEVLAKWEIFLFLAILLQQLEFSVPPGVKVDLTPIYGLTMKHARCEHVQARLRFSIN
Procathepsin L (Homo sapiens), sequence (P07711 114-333 limits assumed): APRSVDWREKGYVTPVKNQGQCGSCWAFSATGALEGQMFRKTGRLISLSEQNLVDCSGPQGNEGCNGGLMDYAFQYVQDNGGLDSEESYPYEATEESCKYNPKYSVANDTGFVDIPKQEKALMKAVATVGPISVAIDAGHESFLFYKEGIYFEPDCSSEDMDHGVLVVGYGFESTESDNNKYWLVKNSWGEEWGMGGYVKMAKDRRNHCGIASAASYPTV
Cytochrome P450 2D6, sequence (P10635 whole entry): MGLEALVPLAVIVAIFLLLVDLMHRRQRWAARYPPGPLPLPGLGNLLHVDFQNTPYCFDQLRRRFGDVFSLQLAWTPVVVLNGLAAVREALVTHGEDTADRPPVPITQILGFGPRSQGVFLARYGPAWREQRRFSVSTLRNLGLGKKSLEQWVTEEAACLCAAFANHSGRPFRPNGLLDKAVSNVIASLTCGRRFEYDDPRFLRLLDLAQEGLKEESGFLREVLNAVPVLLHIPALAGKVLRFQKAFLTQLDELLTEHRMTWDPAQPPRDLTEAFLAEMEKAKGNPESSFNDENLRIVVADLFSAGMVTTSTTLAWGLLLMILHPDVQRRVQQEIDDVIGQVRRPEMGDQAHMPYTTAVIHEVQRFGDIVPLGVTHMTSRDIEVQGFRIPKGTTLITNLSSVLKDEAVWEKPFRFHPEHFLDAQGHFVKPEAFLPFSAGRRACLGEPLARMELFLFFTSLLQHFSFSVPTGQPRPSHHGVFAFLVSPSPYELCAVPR

Q: For `CNC(=O)O[C@@H](CC(C)C)c1nc([C@H]2OC(=O)/C=C/C/C(C)=C/[C@@H](O)[C@@H](C)\C=C(C)/C=C(C)\C=C\[C@@H](O)[C@H](C)[C@H](OC)/C(C)=C/C=C/[C@@H]2C)cs1` [ARCHAZOLID B], which “inhibition (INH)” value (Cytochrome P450 3A4 [1]) is on record?
A: Active

Q: And the half-life at 1 µM [2]?
A: 4.6 min

Q: What about the “inhibition (INH)” value (Cytochrome P450 2B6) of the same molecule?
A: Active

Q: And the “inhibition (INH)” value (Cytochrome P450 1A2)?
A: Active

Q: What about the IC50 (cells) of the same molecule?
A: 0.145 nM

Q: What about the IC50 (P2X purinoceptor 3) of the same molecule?
A: 353 nM

Q: What about the inhibition [3] of the same molecule?
A: inactive

Q: And the “inhibition (INH)” value (Cytochrome P450 2C19 [4])?
A: Active

Q: What about the microsomal CLint at 1 µM [5] of the same molecule?
A: 533 µL/min/mg

Q: What about the permeability [6] of the same molecule?
A: Impermeable

Q: And the microsomal CLint at 1 µM [7]?
A: 495 µL/min/mg

Q: What about the inhibition [8] of the same molecule?
A: inactive

Q: What about the Ki (Adenosine receptor A3) of the same molecule?
A: 1180 nM

Q: And the inhibition [9]?
A: inactive

Q: What about the half-life at 1 µM [10] of the same molecule?
A: 2.8 min

Q: And the “inhibition (INH)” value (Cytochrome P450 2C19 [11])?
A: Active

Q: And the IC50 (Neutrophil elastase)?
A: 316 nM

Q: What about the “inhibition (INH)” value (Cytochrome P450 2C9 [12]) of the same molecule?
A: Active

Q: And the metabolised at 0.25 h, 1 µM [13]?
A: 100%

Q: And the metabolised at 0.25 h, 1 µM [14]?
A: 100%

Q: And the solubility kinetic [15]?
A: 1.6 µM (≈ 1.16 µg/mL)

Q: And the metabolised at 0.25 h, 1 µM [16]?
A: 100%

Q: What about the inhibition (Trypsin (Homo sapiens)) of the same molecule?
A: inactive

Q: What about the microsomal CLint at 1 µM [17] of the same molecule?
A: 301 µL/min/mg

Q: And the “inhibition (INH)” value (Cytochrome P450 3A4 [18])?
A: Active

Q: What about the “inhibition (INH)” value (Cytochrome P450 2D6) of the same molecule?
A: Active

Q: What about the “inhibition (INH)” value (Cytochrome P450 2C9 [19]) of the same molecule?
A: Active

Q: What about the inhibition [20] of the same molecule?
A: inactive

Q: And the half-life at 1 µM [21]?
A: 2.6 min
